In patent publication US20210395256A1, “TYROSINE KINASE INHIBITORS, COMPOSITIONS AND METHODS THERE OF” (Betta Pharmaceuticals Co., Ltd., priority 2018, published 2021) one finds IC50 data, which are given here for 29 molecules.

What is called IC50 is the midpoint of a concentration-inhibition curve.

Sequence of TrkA kinase (P04629 33-796): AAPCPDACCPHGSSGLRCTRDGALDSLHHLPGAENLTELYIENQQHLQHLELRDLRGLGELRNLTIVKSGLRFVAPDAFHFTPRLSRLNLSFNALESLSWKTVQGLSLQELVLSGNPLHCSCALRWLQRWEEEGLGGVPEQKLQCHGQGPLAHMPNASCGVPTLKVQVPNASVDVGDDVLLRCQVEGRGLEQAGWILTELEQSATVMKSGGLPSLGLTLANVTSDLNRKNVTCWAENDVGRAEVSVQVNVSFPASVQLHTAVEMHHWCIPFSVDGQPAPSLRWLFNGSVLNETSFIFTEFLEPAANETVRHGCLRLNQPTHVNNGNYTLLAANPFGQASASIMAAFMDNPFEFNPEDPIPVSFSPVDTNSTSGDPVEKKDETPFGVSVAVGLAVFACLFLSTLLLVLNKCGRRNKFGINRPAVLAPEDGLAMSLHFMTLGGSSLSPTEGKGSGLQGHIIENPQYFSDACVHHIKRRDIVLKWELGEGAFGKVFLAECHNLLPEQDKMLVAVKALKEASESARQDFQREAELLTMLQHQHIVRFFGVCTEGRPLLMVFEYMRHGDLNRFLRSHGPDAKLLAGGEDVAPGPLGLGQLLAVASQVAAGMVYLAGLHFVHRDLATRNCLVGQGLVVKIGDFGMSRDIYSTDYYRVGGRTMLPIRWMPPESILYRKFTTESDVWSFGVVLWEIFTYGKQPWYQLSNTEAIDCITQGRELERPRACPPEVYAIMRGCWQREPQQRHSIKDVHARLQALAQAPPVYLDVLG

The first assay addresses TrkA kinase (Homo sapiens, UniProt P04629). Briefly: TrkA kinase assay (mobility shift assay). The assay is classed as biochemical. Particulars: class symbols; read-out: Trk A Kinase IC50. The method, boiled down: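 Caliper mobility-shift readout of FAM-labelled peptide conversion by TrkA in 50 mM HEPES pH 7.5, 0.0015% Brij-35, with ATP; enzyme preincubated 10 min with compound (10-point dilution), reaction at 28 °C, EDTA stop. Inhibition relative to DMSO and no-enzyme controls; IC50 by four-parameter fit.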
For `Cc1ccc2nc(-c3cnn4ccc(N5CCC[C@@H]5c5cc(F)ccc5F)nc34)[nH]c2n1` [Compound 106, (R)-2-(5-(2-(2,5-difluorophenyl)pyrrolidin-1-yl)pyrazolo[1,5-a]pyrimidin-3-yl)-5-methyl-3H-imidazo[4,5-b]pyridine], the IC50 was ≤ 10 nM.

As to `N#Cc1ccc2nc(-c3cnn4ccc(N5CCC[C@@H]5c5cc(F)ccc5F)nc34)[nH]c2c1` [Compound 107, (R)-2-(5-(2-(2,5-difluorophenyl)pyrrolidin-1-yl)pyrazolo[1,5-a]pyrimidin-3-yl)-1H-benzo[d]imidazole-6-carbonitrile], the IC50 was ≤ 10 nM.

Take `Fc1ccc(F)c([C@H]2CCCN2c2ccn3ncc(-c4nc5ccc(F)nc5[nH]4)c3n2)c1` [Compound 108, (R)-2-(5-(2-(2,5-difluorophenyl)pyrrolidin-1-yl)pyrazolo[1,5-a]pyrimidin-3-yl)-5-fluoro-3H-imidazo[4,5-b]pyridine]: the IC50 was ≤ 10 nM.

Turning to `Fc1ccc(F)c([C@H]2CCCN2c2ccn3ncc(-c4nc5cc(OC(F)F)c(OC(F)F)cc5[nH]4)c3n2)c1` [Compound 109, (R)-3-(5,6-bis(difluoromethoxy)-1H-benzo[d]imidazol-2-yl)-5-(2-(2,5-difluorophenyl)pyrrolidin-1-yl)pyrazolo[1,5-a]pyrimidine], the IC50 was ≤ 10 nM.

On to `COC(=O)Oc1cc2nc(-c3cnn4ccc(N5CCC[C@@H]5c5cc(F)ccc5F)nc34)[nH]c2cc1OC(=O)OC` [Compound 115, (R)-2-(5-(2-(2,5-difluorophenyl)pyrrolidin-1-yl)pyrazolo[1,5-a]pyrimidin-3-yl)-1H-benzo[d]imidazole-5,6-diyl dimethyl bis(carbonate)], for which the IC50 was > 50 nM.

Regarding `Fc1ccc(F)c([C@H]2CCCN2c2ccn3ncc(-c4nc5ccc(SC(F)(F)F)cc5[nH]4)c3n2)c1` [Compound 116, (R)-5-(2-(2,5-difluorophenyl)pyrrolidin-1-yl)-3-(6-((trifluoromethyl)thio)-1H-benzo[d]imidazol-2-yl)pyrazolo[1,5-a]pyrimidine], the IC50 was in the range of 10 to 50 nM.

With `Oc1cc2nc(-c3cnn4ccc(N5CCC[C@@H]5c5cc(F)ccc5F)nc34)[nH]c2cc1O` [Compound 117, (R)-2-(5-(2-(2,5-difluorophenyl)pyrrolidin-1-yl)pyrazolo[1,5-a]pyrimidin-3-yl)-1H-benzo[d]imidazole-5,6-diol], the IC50 was ≤ 10 nM.

Turning to `Fc1ccc(F)c([C@H]2CCCN2c2ccn3ncc(-c4nc5cc(O[C@@H]6CCOC6)c(O[C@H]6CCOC6)cc5[nH]4)c3n2)c1` [Compound 118, 5-((R)-2-(2,5-difluorophenyl)pyrrolidin-1-yl)-3-(5-(((R)-tetrahydrofuran-3-yl)oxy)-6-(((S)-tetrahydrofuran-3-yl)oxy)-1H-benzo[d]imidazol-2-yl)pyrazolo[1,5-a]pyrimidine], the IC50 is 10 to 50 nM.

`N#CCOc1cc2nc(-c3cnn4ccc(N5CCC[C@@H]5c5cc(F)ccc5F)nc34)[nH]c2cc1OCC#N` [Compound 119, (R)-2,2′-((2-(5-(2-(2,5-difluorophenyl)pyrrolidin-1-yl)pyrazolo[1,5-a]pyrimidin-3-yl)-1H-benzo[d]imidazole-5,6-diyl)bis(oxy))diacetonitrile]: the IC50 is ≤ 10 nM.

As for `COc1cc2nc(-c3cnn4ccc(N5CCC[C@@H]5c5cc(F)ccc5F)nc34)oc2cc1OC` [Compound 120, (R)-2-(5-(2-(2,5-difluorophenyl)pyrrolidin-1-yl)pyrazolo[1,5-a]pyrimidin-3-yl)-5,6-dimethoxybenzo[d]oxazole], the half-maximal inhibitory concentration (IC50) is ≤ 10 nM.

On to `Fc1ccc(F)c([C@H]2CCCN2c2ccn3ncc(-c4nc5nc6ccccc6nc5[nH]4)c3n2)c1` [Compound 121, (R)-2-(5-(2-(2,5-difluorophenyl)pyrrolidin-1-yl)pyrazolo[1,5-a]pyrimidin-3-yl)-1H-imidazo[4,5-b]quinoxaline], for which the IC50 was 10 to 50 nM.

As to `Cc1ccnc2[nH]c(-c3cnn4ccc(N5CCC[C@@H]5c5cc(F)ccc5F)nc34)nc12` [Compound 122, (R)-2-(5-(2-(2,5-difluorophenyl)pyrrolidin-1-yl)pyrazolo[1,5-a]pyrimidin-3-yl)-7-methyl-3H-imidazo[4,5-b]pyridine], the IC50 fell in the range of 10 to 50 nM.

With `Cn1c(-c2cnn3ccc(N4CCC[C@@H]4c4cc(F)ccc4F)nc23)nc2cnccc21` [Compound 124, (R)-2-(5-(2-(2,5-difluorophenyl)pyrrolidin-1-yl)pyrazolo[1,5-a]pyrimidin-3-yl)-1-methyl-1H-imidazo[4,5-c]pyridine], the IC50 fell in the range of 10 to 50 nM.

`COc1ccc2nc(-c3cnn4ccc(N5CCC[C@@H]5c5cc(F)ccc5F)nc34)[nH]c2c1F` [Compound 127, (R)-5-(2-(2,5-difluorophenyl)pyrrolidin-1-yl)-3-(7-fluoro-6-methoxy-1H-benzo[d]imidazol-2-yl)pyrazolo[1,5-a]pyrimidine]: the 50% inhibitory concentration (IC50) was ≤ 10 nM.

As for `Fc1ccc(F)c([C@H]2CCCN2c2ccn3ncc(-c4nc5nccnc5[nH]4)c3n2)c1` [Compound 128, (R)-2-(5-(2-(2,5-difluorophenyl)pyrrolidin-1-yl)pyrazolo[1,5-a]pyrimidin-3-yl)-1H-imidazo[4,5-b]pyrazine], the IC50 is ≤ 10 nM.

For the molecule `Fc1ccc(F)c([C@H]2CCCN2c2ccn3ncc(-c4nc5ncc(Br)nc5[nH]4)c3n2)c1` [Compound 129, (R)-6-bromo-2-(5-(2-(2,5-difluorophenyl)pyrrolidin-1-yl)pyrazolo[1,5-a]pyrimidin-3-yl)-1H-imidazo[4,5-b]pyrazine], the IC50 was ≤ 10 nM.

Turning to `Fc1ccc(F)c([C@H]2CCCN2c2ccn3ncc(-c4nc5cc6nc7ccccc7nc6cc5[nH]4)c3n2)c1` [Compound 130, (R)-2-(5-(2-(2,5-difluorophenyl)pyrrolidin-1-yl)pyrazolo[1,5-a]pyrimidin-3-yl)-1H-imidazo[4,5-b]phenazine], the IC50 is > 50 nM.

Consider `Fc1ccc(F)c([C@H]2CCCN2c2ccn3ncc(-c4nc5cc6c(cc5o4)OCO6)c3n2)c1` [Compound 131, (R)-6-(5-(2-(2,5-difluorophenyl)pyrrolidin-1-yl)pyrazolo[1,5-a]pyrimidin-3-yl)-[1,3]dioxolo[4′,5′:4,5]benzo[1,2-d]oxazole], for which the IC50 fell in the range of 10 to 50 nM.

As for `OC1CCc2nc(-c3cnn4ccc(N5CCC[C@@H]5c5cc(F)ccc5F)nc34)nn2C1` (stereo partly drawn) [Compound 132, 2-(5-((R)-2-(2,5-difluorophenyl)pyrrolidin-1-yl)pyrazolo[1,5-a]pyrimidin-3-yl)-5,6,7,8-tetrahydro-[1,2,4]triazolo[1,5-a]pyridin-6-ol], the IC50 was in the range of 10 to 50 nM.

Turning to `N#Cc1ccc2[nH]c(-c3cnn4ccc(N5CCC[C@@H]5c5cc(F)ccc5F)nc34)cc2c1` [Compound 133, (R)-2-(5-(2-(2,5-difluorophenyl)pyrrolidin-1-yl)pyrazolo[1,5-a]pyrimidin-3-yl)-1H-indole-5-carbonitrile], the IC50 lay in the range of 10 to 50 nM.

Take `OCc1cc2nc(-c3cnn4ccc(N5CCC[C@@H]5c5cc(F)ccc5F)nc34)[nH]c2cn1` [Compound 135, (R)-(2-(5-(2-(2,5-difluorophenyl)pyrrolidin-1-yl)pyrazolo[1,5-a]pyrimidin-3-yl)-3H-imidazo[4,5-c]pyridin-6-yl)methanol]: the IC50 was ≤ 10 nM.

The assay is the same for the next values; noted with them: numeric values; read-out: Trk A Kinase IC50.
For `Fc1ccc(F)c([C@H]2CCCN2c2ccn3ncc(-c4nc5ncc(C(F)(F)F)cc5[nH]4)c3n2)c1` [Compound 110, (R)-2-(5-(2-(2,5-difluorophenyl)pyrrolidin-1-yl)pyrazolo[1,5-a]pyrimidin-3-yl)-6-(trifluoromethyl)-1H-imidazo[4,5-b]pyridine], the IC50 is 1.9 nM.

With `Fc1ccc(F)c([C@H]2CCCN2c2ccn3ncc(-c4nc5cc(F)cc(F)c5o4)c3n2)c1` [Compound 111, (R)-2-(5-(2-(2,5-difluorophenyl)pyrrolidin-1-yl)pyrazolo[1,5-a]pyrimidin-3-yl)-5,7-difluorobenzo[d]oxazole], the IC50 came out at 5.3 nM.

Take `Fc1ccc(F)c([C@H]2CCCN2c2ccn3ncc(-c4nc5cccc(OC(F)(F)F)c5[nH]4)c3n2)c1` [Compound 113, (R)-5-(2-(2,5-difluorophenyl)pyrrolidin-1-yl)-3-(7-(trifluoromethoxy)-1H-benzo[d]imidazol-2-yl)pyrazolo[1,5-a]pyrimidine]: the IC50 came out at 6.7 nM.

As for `Fc1ccc(F)c([C@H]2CCCN2c2ccn3ncc(-c4nc5ccc(C(F)(F)F)nc5[nH]4)c3n2)c1` [Compound 114, (R)-2-(5-(2-(2,5-difluorophenyl)pyrrolidin-1-yl)pyrazolo[1,5-a]pyrimidin-3-yl)-5-(trifluoromethyl)-3H-imidazo[4,5-b]pyridine], the IC50 came out at 3.8 nM.

Consider `Fc1ccc(F)c([C@H]2CCCN2c2ccn3ncc(-c4nc5cc6c(cc5[nH]4)OCCCO6)c3n2)c1` [Compound 134, (R)-2-(5-(2-(2,5-difluorophenyl)pyrrolidin-1-yl)pyrazolo[1,5-a]pyrimidin-3-yl)-7,8-dihydro-1H,6H-[1,4]dioxepino[2′,3′:4,5]benzo[1,2-d]imidazole], for which the IC50 worked out at 1.1 nM.

As for `Fc1ccc(F)c([C@H]2CCCN2c2ccn3ncc(-c4nc5cc(F)c(F)cc5[nH]4)c3n2)c1` [Compound 136, (R)-3-(5,6-difluoro-1H-benzo[d]imidazol-2-yl)-5-(2-(2,5-difluorophenyl)pyrrolidin-1-yl)pyrazolo[1,5-a]pyrimidine], the IC50 is 1.9 nM.

Regarding `COC(=O)c1cc2[nH]c(-c3cnn4ccc(N5CCC[C@@H]5c5cc(F)ccc5F)nc34)nc2c(F)c1F` [Compound 137, methyl (R)-2-(5-(2-(2,5-difluorophenyl)pyrrolidin-1-yl)pyrazolo[1,5-a]pyrimidin-3-yl)-4,5-difluoro-1H-benzo[d]imidazole-6-carboxylate], the IC50 was found to be 2.65 nM.

As for `O=C(O)c1cc2[nH]c(-c3cnn4ccc(N5CCC[C@@H]5c5cc(F)ccc5F)nc34)nc2c(F)c1F` [Compound 138, (R)-2-(5-(2-(2,5-difluorophenyl)pyrrolidin-1-yl)pyrazolo[1,5-a]pyrimidin-3-yl)-4,5-difluoro-1H-benzo[d]imidazole-6-carboxylic acid], the IC50 was determined as 0.48 nM.
